Measurements reported in US9415063B2, “Treatment of neurological disorders” (VELACOR THERAPEUTICS PTY LTD., priority 2007, dated 2016).
Read-outs that look alike come from different tables or passages of the source.

Columns and labels:
[1] = test system: cultured rat hippocampal slices; experiment: Tissue culture toxicity screen in organotypic hippocampal slice cultures
Procedure: (§1) Wistar rat pups (8-11 days old) were decapitated and the hippocampus rapidly dissected into ice-cold Gey's balanced salt solution supplemented with 4.5 mg/mL glucose. Transverse sections (400 μm) were cut on a McIlwain tissue chopper and placed back into ice-cold Gey's balanced salt solution. Slices were separated and plated onto Millicell CM culture inserts (4 per well) and maintained at 37° C./5% CO2 for 14 days. Maintenance medium consists of 25% heat-inactivated horse serum, 25% Hank's balanced salt solution (HBSS) and 50% minimum essential medium with added Earle's salts (MEM), supplemented with 1 mM glutamine and 4.5 mg/mL glucose. Medium was changed every 3-4 days.
(§2) Neuronal damage was assessed using ImageJ software running on a PC. Images being captured using a monochrome CCD camera and saved for offline analysis. Light transmission images were captured prior to the addition of drugs, and PI fluorescence images recorded at the end of the 24-hour recovery period. The area of the CA1 region was then determined from the transmission image. The area of PI fluorescence in the CA1 is measured using the threshold function on ImageJ, and neuronal damage expressed as the percentage of the CA1 in which PI fluorescence is detected above background (Pringle et al., 1997).
A preliminary toxicity screen was carried out on the compounds to determine tissue culture exposure levels that would cause toxicity. […] Damage was measured after 24 hours and 48 hours.
(§3) In this case the sodium selenate was made to 50 mM in SFM, then serially diluted to 25 mM, 10 mM and 1 mM, each of these used at 10 μL/mL to give final concentrations of 10 μM, 100 μM, 250 μM and 500 μM. Sodium selenite and selenomethionine as before. An experiment to assess the toxicity of sodium selenate at these higher concentrations was run in parallel with the OGD (Results FIG. 4).

[2] = test system: cultured rat hippocampal slices (CA1 region); experiment: Hypoxia induced neurodegeneration in organotypic hippocampal slice cultures; format: cell-based, Wistar rat; conditions: 100 μM; compound present 24 hours pre-, during 3 hours of and 24 hours post-hypoxia; vs hypoxia alone
Procedure: as §1
PI fluorescence was detected using a Leica DMIL inverted microscope fitted with a rhodamine filter set. […]
as §2, with “Images being captured using a monochrome CCD camera and saved for offline analysis.” left out

[3] = test system: cultured rat hippocampal slices (CA1 region); experiment: Ischaemia (oxygen glucose deprivation) induced neurodegeneration in organotypic hippocampal slice cultures; format: cell-based, Wistar rat
Procedure: as §1, §2, §3

[4] = test system: PTZ induced seizures; conditions: for Number of seizures: 30 minutes observation; for Number of seizures / Duration of seizure activity / Number of severe seizures / Latency to seizure onset: mean±SEM; for Latency to seizure onset: not significant vs vehicle
Procedure: All animal experiments were carried out according to the National Institute of Health (NIH) guidelines for the care and use of laboratory animals, and approved by the Ethical Committee of the National Laboratory Animal Center, Kuopio, Finland. Altogether 30 adult male Sprague-Dawley rats (Taconic, Denmark) weighing 200-240 g were used. Animals were housed at a standard temperature (22±1° C.) and in a light-controlled environment (lights on from 7 am to 8 pm) with ad libitum access to food and water.
Animals were grouped as follows: • 10 rats treated with vehicle (sterile water as drinking water). • 10 rats treated with sodium selenate anhydrous (120 microgram in 100 mL sterile water), p.o in drinking water for 7 days prior to PTZ injection. • 10 rats treated with sodium selenate anhydrous (1.2 milligram in 100 mL sterile water), p.o in drinking water for 7 days prior to PTZ injection. PTZ Induced Seizures
Pentylenetetrazol (PTZ) (60 mg/kg) is administered intraperitoneally (i.p., 2 mL/kg in saline) to male Sprague-Dawley rats.
Sodium selenate is administered p.o in drinking water for 7 days prior to PTZ injection. The rats have ad libitum access to water (normal daily consumption of water is 30 mL/rat/day).
The incidence of seizures (seizure and severe seizure), the latency for the first seizure appearance and the duration of seizure activity were used as indices of anticonvulsant effect. Seizure numbers were not counted if the animal died. […] Animals that died were assigned the maximum seizure duration of 30 minutes. […] Severe seizure was defined as a prolonged seizure involving stretching and twisting convulsions.
Values are presented as percentages and differences are considered to be statistically significant at the P<0.05 level. Statistical analysis was performed using StatsDirect software. Differences among groups were analyzed by 1-way-ANOVA followed by Dunnet's test (comparison to the control (=vehicle treated PTZ rats) group).

[5] = 100 μM, compound present 24 hours pre-, during 1 hour of and 24 hours post-ischaemia, vs OGD alone
[6] = 120 μg in 100 mL drinking water p.o. 7 days prior to PTZ
[7] = 1.2 mg in 100 mL drinking water p.o. 7 days prior to PTZ

Row | Compound | Concentration above which compound was toxic in tissue culture ([1]; serum free media, tested at 5 μM, 25 μM and 100 μM, damage measured after 24 hours and 48 hours) | Neuronal damage (PI fluorescence in CA1) after hypoxia [2] | Neuronal damage (PI fluorescence in CA1) after OGD ischaemia [3, 5] | Toxicity in tissue culture in the absence of hypoxia ([1]; 500 μM, run in parallel with the OGD experiment (FIG. 4)) | Tissue culture toxicity ([1]; serum free media, any concentration tested up to 100 μM, 24 hours and 48 hours) | Neuronal damage (PI fluorescence in CA1) after OGD ischaemia ([3]; 250 μM, pre, during and post-ischaemia, vs OGD alone) | Neuronal damage (PI fluorescence in CA1) after OGD ischaemia ([3]; 500 μM, pre, during and post-ischaemia) | Number of seizures [4, 6] | Duration of seizure activity [4, 6] | Number of severe seizures [4, 6] | Latency to seizure onset [4, 6] | Mortality ([4]; 120 μg in 100 mL drinking water p.o. for 7 days prior to PTZ 60 mg/kg i.p., 10 rats) | Number of seizures [4, 7] | Duration of seizure activity [4, 7] | Number of severe seizures [4, 7] | Latency to seizure onset [4, 7]
1 | O=[Se](O)O [Sodium selenite, reference compound] | above 5 μM | – | – | – | – | – | – | – | – | – | – | – | – | – | – | –
2 | O=C(O)c1ccc(C2=C3C=CC(=N3)C(c3ccc(C(=O)O)cc3)=c3ccc([nH]3)=C(c3ccc(C(=O)O)cc3)c3ccc([n-]3)C(c3ccc(C(=O)O)cc3)c3ccc2[n-]3)cc1.[Cl-].[Mn+3] (stereo not drawn) [MnTBAP, Mn(III)tetrakis(4-benzoic acid)porphyrin chloride, reference compound] | – | prevented | prevented | – | – | – | – | – | – | – | – | – | – | – | – | –
3 | O=[Se](=O)(O)O [sodium selenate] | – | Significant attenuation of damage | Significant attenuation of damage | neurotoxicity | not found to be toxic | Significant attenuation of damage | significant increase in toxicity | 8.5±2.1 | 770.9 ± 189.9 s | 0.8±0.1 | 217.6 ± 117.6 s | 1 animal | 9.9±2.2 | 808.6 ± 126.1 s | 0.9±0.1 | 107.6 ± 26.9 s
